Source: article PMC8466554, “Heteroaryl-Ethylenes as New Lead Compounds in the Fight against High Priority Bacterial Strains” (Antibiotics, 2021)
Values joined by “and” are separate entries in the source; they are usually repeats but may differ in a detail not shown here. Equal values may be shown once. Read-outs that look alike come from different tables or passages of the source. One block for each molecule: values may come before it.

Assays:
S.aureus USA300-CAMRSA = experiment: MIC and MBC microtiter plate assay; format: cell-based, Staphylococcus aureus
P. aeruginosa ATCC27853 = experiment: MIC microtiter plate assay; format: cell-based, Pseudomonas aeruginosa
E. coli ATCC25922 = experiment: MIC and MBC microtiter plate assay, also with different inocula; format: cell-based, Escherichia coli
[1] = system: Gram-positive and Gram-negative ATCC strains; experiment: MIC and MBC, summary over Gram-positive and Gram-negative strains; format: cell-based; details: by MBC/MIC ratio
CaCo-2 cells = experiment: MTT cytotoxicity assay; format: cell-based, human; details: 24 h of incubation relative to untreated controls
Experimental: To evaluate the biological activity of the PBn series, compounds were screened for toxicity against the colon-rectal cancer cell line CaCo-2 (ATCC HTB-37). These human cancer cells were treated with solutions of the compounds at decreasing concentrations, starting from 100 μM up to 0.01 μM. The reference compound used for these assays was 5-Fluorouracil (5-Fu), a pyrimidine analogue belonging to the family of antimetabolite. […] Briefly, human colorectal adenocarcinoma cells (CaCo-2 HTB-37^TM Colorectal Adenocarcinoma Human, American Type Culture Collection, Manassas, VA, USA) were grown in Dulbecco’s MEM (DMEM) with 10% heat-inactivated fetal bovine serum, 2 mM L-Alanyl-L-Glutamine, penicillin-streptomycin (50 units-50 μg for mL) and incubated at 37 °C in a humidified atmosphere of 5% CO2, 95% air. CaCo-2 cells were plated in 96 well pates and incubated at 37 °C. The PBn series compounds and 5-FU were prepared as a 1 mM solution in 10 mL with 0.01% DMSO. Then, 24 h after plating, cells were treated with 20 μL of each solution. Untreated cells were used as controls. […] The results were read on a multiwell scanning spectrophotometer (AF2200 plate reader, Eppendorf, Milan, Italy), using a wavelength of 569 nm.

S.aureus Mu50-VISA = experiment: MIC and MBC microtiter plate assay; format: cell-based, Staphylococcus aureus
K. pneumoniae ATCC700603 = experiment: MIC microtiter plate assay; format: cell-based, Klebsiella pneumoniae
S.aureus ATCC12598-MSSA = experiment: MIC and MBC microtiter plate assay, also with different inocula; format: cell-based, Staphylococcus aureus
[2] = system: E. faecalis ATCC29212-VSE; experiment: MIC and MBC microtiter plate assay; format: cell-based
[3] = system: E. faecalis ATCC51299-VRE; experiment: MIC and MBC microtiter plate assay, also with different inocula; format: cell-based
S.aureus ATCC29213-MSSA = experiment: MIC and MBC microtiter plate assay; format: cell-based, Staphylococcus aureus
[4] = system: K. pneumoniae ATCC BAA-2814; experiment: MIC microtiter plate assay; format: cell-based, Klebsiella pneumoniae; details: K. pneumoniae ATCC BAA-2814 (MDR strain)
A. baumannii ATCC17978 = experiment: MIC and MBC microtiter plate assay, also with different inocula; format: cell-based, Acinetobacter baumannii; details: A. baumannii ATCC17978
[5] = system: Gram-positive control strains; experiment: MIC and MBC, summary over Gram-positive control strains; format: cell-based, S. aureus and Enterococcus spp.; details: over the Gram-positive control strains (S. aureus and Enterococcus spp.)
[6] = S. aureus ATCC12598, inoculum 1.00101 (1 × 10^1 CFU/mL)
[7] = S. aureus ATCC12598, inoculum 1.00102 (1 × 10^2 CFU/mL)
[8] = S. aureus ATCC12598, inoculum 1.00103 (1 × 10^3 CFU/mL)
[9] = S. aureus ATCC12598, inoculum 1.00104 (1 × 10^4 CFU/mL)
[10] = S. aureus ATCC12598, inoculum 1.00105 (1 × 10^5 CFU/mL, standard)
[11] = S. aureus ATCC12598, inoculum 1.00106 (1 × 10^6 CFU/mL)
[12] = S. aureus ATCC12598, inoculum 1.00107 (1 × 10^7 CFU/mL)
[13] = S.aureus ATCC12598-MSSA, value in brackets
[14] = E. faecalis ATCC51299-VRE, value in brackets
[15] = E. faecalis ATCC51299, inoculum 1.00101 (1 × 10^1 CFU/mL)
[16] = E. faecalis ATCC51299, inoculum 1.00102 (1 × 10^2 CFU/mL)
[17] = E. faecalis ATCC51299, inoculum 1.00103 (1 × 10^3 CFU/mL)
[18] = E. faecalis ATCC51299, inoculum 1.00104 (1 × 10^4 CFU/mL)
[19] = E. faecalis ATCC51299, inoculum 1.00105 (1 × 10^5 CFU/mL, standard)
[20] = E. faecalis ATCC51299, inoculum 1.00106 (1 × 10^6 CFU/mL)
[21] = E. faecalis ATCC51299, inoculum 1.00107 (1 × 10^7 CFU/mL)

MIC (S.aureus USA300-CAMRSA; value in brackets): 0.93 µM | MIC (P. aeruginosa ATCC27853): > 128 µg/mL | MIC (P. aeruginosa ATCC27853; value in brackets): > 236.94 µM | MIC (E. coli ATCC25922): 32 µg/mL | MIC (E. coli ATCC25922; value in brackets): 59.24 µM | MIC (S.aureus Mu50-VISA): 2 µg/mL | MIC (S.aureus Mu50-VISA; value in brackets): 3.70 µM | MIC (K. pneumoniae ATCC700603): > 128 µg/mL | MIC (K. pneumoniae ATCC700603; value in brackets): > 236.94 µM | MIC (S.aureus ATCC12598-MSSA; [6]): 0.03 mg/L and 0.06 μM | MIC (S.aureus ATCC12598-MSSA; [7]): 0.03 mg/L and 0.06 μM | MIC (S.aureus ATCC12598-MSSA; [8]): 0.06 μM and 0.03 mg/L | MIC (S.aureus ATCC12598-MSSA; [9]): 0.06 mg/L and 0.12 μM | MIC (S.aureus ATCC12598-MSSA; [10]): 4 mg/L and 7.40 μM | MIC (S.aureus ATCC12598-MSSA; [11]): 4 mg/L and 7.40 μM | MIC (S.aureus ATCC12598-MSSA; [12]): 8 mg/L and 14.81 μM | MIC (S.aureus ATCC12598-MSSA; S.aureus ATCC12598-MSSA): 4 mg/L | MIC (S.aureus ATCC12598-MSSA; [13]): 7.40 µM | MIC [2]: 4 µg/mL | MIC ([2]; value in brackets): 7.40 µM | MIC ([3]; E. faecalis ATCC51299-VRE): 4 mg/L | MIC [3, 14]: 7.40 µM | MIC [3, 15]: 0.5 mg/L and 0.93 μM | MIC [3, 16]: 1 mg/L and 1.85 μM | MIC [3, 17]: 1 mg/L and 1.85 μM | MIC [3, 18]: 1 mg/L and 1.85 μM | MIC [3, 19]: 4 mg/L and 7.40 μM | MIC [3, 20]: 4 mg/L and 7.40 μM | MIC [3, 21]: 4 mg/L and 7.40 μM | MIC (S.aureus ATCC29213-MSSA): 1 µg/mL | MIC (S.aureus ATCC29213-MSSA; value in brackets): 1.85 µM | MIC [4]: > 128 µg/mL | MIC ([4]; value in brackets): > 236.94 µM | MIC (A. baumannii ATCC17978): > 128 µg/mL | MIC (A. baumannii ATCC17978; value in brackets): > 236.94 µM
Compound: Clc1ccc(Cl)c(-c2ccc(/C=C/c3cc[n+](-c4ncccn4)cc3)o2)c1.F[P-](F)(F)(F)(F)F [PB5]
MBC (S.aureus USA300-CAMRSA): 4 µg/mL | MBC (S.aureus USA300-CAMRSA; value in brackets): 7.40 µM | bactericidal/bacteriostatic activity [1]: strain-dependent bactericidal/bacteriostatic activity | IC50 (CaCo-2 cells): 3.9 µM | MBC (S.aureus Mu50-VISA): 4 µg/mL | MBC (S.aureus Mu50-VISA; value in brackets): 7.40 µM | MBC (S.aureus ATCC12598-MSSA; S.aureus ATCC12598-MSSA): 4 µg/mL | MBC (S.aureus ATCC12598-MSSA; [13]): 7.40 µM | MBC [2]: 128 µg/mL | MBC ([2]; value in brackets): 236.94 µM | MBC ([3]; E. faecalis ATCC51299-VRE): 128 µg/mL | MBC [3, 14]: 236.94 µM | MBC (S.aureus ATCC29213-MSSA): 4 µg/mL | MBC (S.aureus ATCC29213-MSSA; value in brackets): 7.40 µM

MIC (S.aureus USA300-CAMRSA): 4 µg/mL | MIC (S.aureus USA300-CAMRSA; value in brackets): 8.73 µM | MIC (P. aeruginosa ATCC27853): > 128 µg/mL | MIC (P. aeruginosa ATCC27853; value in brackets): > 279.40 µM | MIC (E. coli ATCC25922): > 128 µg/mL | MIC (E. coli ATCC25922; value in brackets): > 279.40 µM | MIC (S.aureus Mu50-VISA): 4 µg/mL | MIC (S.aureus Mu50-VISA; value in brackets): 8.73 µM | MIC (K. pneumoniae ATCC700603): > 128 µg/mL | MIC (K. pneumoniae ATCC700603; value in brackets): > 279.40 µM | MIC (S.aureus ATCC12598-MSSA; S.aureus ATCC12598-MSSA): 8 mg/L | MIC (S.aureus ATCC12598-MSSA; [13]): 17.46 µM | MIC [2]: 32 µg/mL | MIC ([2]; value in brackets): 69.85 µM | MIC ([3]; E. faecalis ATCC51299-VRE): 32 mg/L | MIC [3, 14]: 69.85 µM | MIC (S.aureus ATCC29213-MSSA): 4 µg/mL | MIC (S.aureus ATCC29213-MSSA; value in brackets): 8.73 µM | MIC [4]: > 128 µg/mL | MIC ([4]; value in brackets): > 279.40 µM | MIC (A. baumannii ATCC17978): 64 µg/mL
Compound: C[n+]1ccc(/C=C/c2ccc(-c3cc(Cl)ccc3Cl)o2)cc1.F[P-](F)(F)(F)(F)F [PB6]
bactericidal/bacteriostatic activity [1]: strain-dependent bactericidal/bacteriostatic activity | IC50 (CaCo-2 cells): 6.79 µM and 6.8 µM

MIC (S.aureus USA300-CAMRSA): 2 µg/mL | MIC (S.aureus USA300-CAMRSA; value in brackets): 4.31 µM | MIC (P. aeruginosa ATCC27853): > 128 µg/mL | MIC (P. aeruginosa ATCC27853; value in brackets): > 276.02 µM | MIC (E. coli ATCC25922): 32 µg/mL | MIC (E. coli ATCC25922; value in brackets): 69.00 µM | MIC (S.aureus Mu50-VISA): 16 µg/mL | MIC (S.aureus Mu50-VISA; value in brackets): 34.50 µM | MIC (K. pneumoniae ATCC700603): 128 µg/mL | MIC (K. pneumoniae ATCC700603; value in brackets): 276.02 µM | MIC (S.aureus ATCC12598-MSSA; [6]): 2 mg/L and 4.31 μM | MIC (S.aureus ATCC12598-MSSA; [7]): 4 mg/L and 8.63 μM | MIC (S.aureus ATCC12598-MSSA; [8]): 8.63 μM and 4 mg/L | MIC (S.aureus ATCC12598-MSSA; [9]): 4 mg/L and 8.63 μM | MIC (S.aureus ATCC12598-MSSA; [10]): 8 mg/L and 17.25 μM | MIC (S.aureus ATCC12598-MSSA; [11]): 8 mg/L and 17.25 μM | MIC (S.aureus ATCC12598-MSSA; [12]): 32 mg/L and 69.00 μM | MIC (S.aureus ATCC12598-MSSA; S.aureus ATCC12598-MSSA): 8 mg/L | MIC (S.aureus ATCC12598-MSSA; [13]): 17.25 µM | MIC [2]: 8 µg/mL | MIC ([2]; value in brackets): 17.25 µM | MIC ([3]; E. faecalis ATCC51299-VRE): 8 mg/L | MIC [3, 14]: 17.25 µM | MIC [3, 15]: 8 mg/L and 17.25 μM | MIC [3, 16]: 8 mg/L and 17.25 μM | MIC [3, 17]: 8 mg/L and 17.25 μM | MIC [3, 18]: 8 mg/L and 17.25 μM | MIC [3, 19]: 8 mg/L and 17.25 μM | MIC [3, 20]: 16 mg/L and 34.50 μM | MIC [3, 21]: 32 mg/L and 69.00 μM | MIC [5]: ≤ 16 µg/mL | MIC (S.aureus ATCC29213-MSSA): 4 µg/mL | MIC (S.aureus ATCC29213-MSSA; value in brackets): 8.63 µM | MIC [4]: 64 µg/mL | MIC ([4]; value in brackets): 138.01 µM | MIC (A. baumannii ATCC17978): 32 µg/mL | MIC (A. baumannii ATCC17978; value in brackets): 69.00 µM
Compound: CC[n+]1ccc2c(c1)CCCC2=Cc1ccc(-c2ccc(Cl)cc2)o1.[I-] [PB7]
MBC (S.aureus USA300-CAMRSA): 32 µg/mL | MBC (S.aureus USA300-CAMRSA; value in brackets): 69.00 µM | IC50 (CaCo-2 cells): 1.36 µM | MBC (S.aureus Mu50-VISA): 16 µg/mL | MBC (S.aureus Mu50-VISA; value in brackets): 34.50 µM | MBC (S.aureus ATCC12598-MSSA; S.aureus ATCC12598-MSSA): 8 µg/mL | MBC (S.aureus ATCC12598-MSSA; [13]): 17.25 µM | MBC [2]: 128 µg/mL | MBC ([2]; value in brackets): 276.02 µM | MBC ([3]; E. faecalis ATCC51299-VRE): 128 µg/mL | MBC [3, 14]: 276.02 µM | MBC (S.aureus ATCC29213-MSSA): 4 µg/mL | MBC (S.aureus ATCC29213-MSSA; value in brackets): 8.63 µM
